In patent publication US11077126B2 (priority 2017, dated 2021):
Marks after values point to notes of the source that are not given here.

What was measured:
[1] = system: transplanted tumor of human lymphoma U937 cells; experiment: Human lymphoma in nude mice model; settings: 30 mg/kg i.g. 30 d
Protocol: (§1) U937 cells in a logarithmic growth phase were taken and subjected to a trypan blue exclusion experiment showing that the cell viability was more than 95%, then the cells were subjected to trypsinization, centrifugation, and supernatant removal. Then cell concentration was adjusted to 1×10^7/ml with matrigel, and then each nude mouse was inoculated subcutaneously with 0.2 ml of cells at its right armpit and recorded as the first day of inoculation. […] Each group was continuously administered intragastrically for 30 days with a dose of 20 ml/kg. The mice were sacrificed the next day after drug withdrawal and the indicators were tested. The long diameter and short diameter of the tumor, and the body weight of each mouse were recorded every 3 days from drug administration to nude mouse sacrifice.
(§2) The body weight of the nude mice and the long diameter (a) and short diameter (b) of the transplanted tumor were measured every 3 days, and the tumor volume (v), relative tumor volume (RTV) and relative tumor proliferation rate (T/C) are calculated respectively according to the following formulas, wherein V=a×b^2/2; RTV=V/V0 (V0 is the tumor volume before administration, V is the tumor volume before sacrifice), and T/C (%)=treatment group RTV/model control group RTV×100%.
(§3) Each mouse was weighed and sacrificed. After the tumor was completely stripped off from the body of the mouse, the non-tumor tissues such as blood stains and fat were removed to weigh the tumor and calculate the tumor growth inhibition rate. The average tumor weight of each group of mice is used as an indicator of efficacy. Tumor growth inhibition rate (%)=(1−the average tumor weight of the treatment group/the average tumor weight of the model group)×100%.

[2] = system: transplanted tumor of human glioma U251 cells; experiment: Human glioma in nude mice model; settings: 30 mg/kg i.g. 30 d
Protocol: Then matrigel cell concentration was adjusted to 1×10^7/ml with matrigel, and then each nude mouse was inoculated subcutaneously with 0.2 ml of cells at its right armpit and recorded as the first day of inoculation. […] Each group was continuously administered intragastrically for 30 days with a dose of 20 ml/kg. The mice were sacrificed the next day after drug withdrawal and the indicators were tested. The long diameter and short diameter of tumor, and the body weight of each mouse were recorded every 3 days from drug administration to nude mouse sacrifice.
as §2, §3

[3] = system: transplanted tumor of human renal cell adenocarcinoma 769-P cells; experiment: Human renal cell adenocarcinoma in nude mice model; settings: 769-P nude mice; 30 mg/kg i.g. 30 d
Protocol: Then cell concentration was adjusted to 1×10^7/ml with matrigel, and then each nude mouse was inoculated subcutaneously with 0.2 ml of cells at its right armpit and recorded as the first day of inoculation. […] Each group was continuously administered intragastrically for 30 days with a dose of 20 ml/kg. The mice were sacrificed the next day after drug withdrawal and the indicators were tested. The long diameter and short diameter of tumor, and the body weight of each mouse were recorded every 3 days from drug administration to nude mouse sacrifice.
as §2, §3

[4] = system: transplanted tumor of mouse H22 liver cancer; experiment: Inhibition of transplanted tumor of mouse H22 liver cancer
Protocol: The H22 cell strains cryopreserved in liquid nitrogen were resuscitated in Kunming mice. After 3 generations, the ascites of Kunming mice were taken and placed in a 50 ml centrifuge tube in which 10 ml of 0.9% normal saline was added, and then centrifuging was performed at 1000 rpm for 5 min at room temperature, and the obtained supernatant was removed. Then 10 ml of 0.9% normal saline was added to the tube to blow and mix well, and then the mixture was diluted to 5×10^6 live cells/ml with normal saline after counting. The tube was stored in ice water, and 75% ethanol was used to disinfect the skin under the right armpits of the mice. Each Kunming mouse was soon inoculated subcutaneously with 0.2 ml of the cells at the armpit of the right forelimb.
In the H22 liver cancer model, the mice inoculated with the tumor were randomly divided into groups with 10 mice in each group on the next day of inoculation. […] Each group was continuously administered intragastrically for 7 days with a dose of 20 ml/kg.
The tumor-bearing mice were weighed and sacrificed the next day after the last administration. The subcutaneous tumors were dissected and weighed. The average tumor weight of each group is calculated, and the tumor inhibition rate is calculated. Tumor inhibition rate=(1−T/C)×100%
T: average tumor weight of the drug-administered group; C: average tumor weight of the blank control group.

[5] = system: thymus and spleen of Lewis lung cancer tumor-bearing mice; experiment: Thymus index and spleen index of Lewis lung cancer tumor-bearing mice; assay type: in vivo, C57BL/6 mouse
Protocol: After the tumor-bearing mice are sacrificed, the spleen and thymus are weighed, and the spleen index and thymus index are calculated.

[6] = system: transplanted tumor of human non-small cell lung cancer A549 cells; experiment: Human non-small cell lung cancer in nude mice model; settings: 30 mg/kg i.g. 30 d
Protocol: as §1, with “A549” for “U937”, “matrigel,” for “matrigel, and”, “inoculation. When the tumor growed to be greater than or equal to 100 mm^3, the mice were randomly divided into 5 groups with 6 mice in each group.” for “inoculation.”
as §2, §3

[7] = 26 mg/kg, positive drug group, n = 6

## O=P1(N(CCCl)CCCl)NCCCO1 (centres unmarked) [Cyclophosphamide]
[1]
  Body Weight (g)(d1): 19.79 ± 0.86 g
  Body Weight (g)(d30): 18.85 ± 0.62 g
  Inhibition Rate (%): 78.40%
  Relative Tumor Proliferation Rate(T/C): 34.30%
  Relative Tumor Volume (RTV): 6.37 ± 0.94
  Tumor Volume (mm^3) (d1): 139.58 ± 11.25 mm^3
  Tumor Volume (mm^3) (d30): 889.72 ± 59.73*** mm^3
  Tumor Weight: 0.38 ± 0.16 g
[2]
  Body Weight (g)(d1): 22.24 ± 1.53 g
  Body Weight (g)(d30): 19.92 ± 1.68 g
  Inhibition Rate (%): 79.74%
  Relative Tumor Proliferation Rate(T/C): 56.84%
  Relative Tumor Volume (RTV): 5.75 ± 1.22
  Tumor Volume (mm3) (d1): 98.40 ± 25.25 mm3
  Tumor Volume (mm3) (d30): 566.33 ± 39.32 mm3
  Tumor Weight: 0.42 ± 0.10 g
[3]
  Body Weight (g)(d1): 22.48 ± 0.91 g
  Body Weight (g)(d30): 21.28 ± 0.39 g
  Inhibition Rate (%): 76.09%
  Relative Tumor Proliferation Rate(T/C): 19.68%
  Relative Tumor Volume (RTV): 4.19 ± 1.29
  Tumor Volume (mm3) (d1): 178.48 ± 28.78 mm3
  Tumor Volume (mm3) (d30): 747.83 ± 138.57 mm3
  Tumor Weight: 0.61 ± 0.15 g
[4]; 26 mg/kg, positive drug group
  tumour: 0.53 ± 0.24 g
[4]; 26 mg/kg, positive drug group, by tumor weight
  Inhibition Rate (%): 47.25%
[4]; 26 mg/kg, positive drug group, d1
  Body Weight (g)(d1): 23.50 ± 1.90 g
[4]; 26 mg/kg, positive drug group, d7
  Body Weight (g) (d7): 25.13 ± 2.69 g
[4]; H22 liver cancer mice, cyclophosphamide 26 mg/kg
  weight compared with the normal control group: slight decrease in weight
[4]; Kunming mouse H22 liver cancer, cyclophosphamide 26 mg/kg i.g. 7 days
  tumor inhibition rate: 47.25%
[5]; [7]
  Spleen Index (%): 0.41 ± 0.12 %
  Thymus Index (%): 0.12 ± 0.09%
[5]; Lewis lung cancer tumor-bearing mice, cyclophosphamide, P<0.01
  spleen index compared with the control group: significantly lower
[6]
  Body Weight (g)(d1): 20.89 ± 0.91 g
  Body Weight (g)(d30): 18.97 ± 0.82 g
  Inhibition Rate (%): 81.25%
  Relative Tumor Proliferation Rate(T/C): 23.28%
  Relative Tumor Volume (RTV): 3.97 ± 0.68
  Tumor Volume (mm3) (d1): 127.26 ± 15.21 mm3
  Tumor Volume (mm3) (d30): 504.75 ± 143.63 mm3
  Tumor Weight: 0.21 ± 0.11 g
